We go through four molecules from US20090170899A1, “Stimulators of 5-HT4 receptors and uses thereof” (priority 2004, published 2009).

Where two headings read alike, the source gives them in different places.

The subject of experiment [1] is DRN 5-HT neurons. The note with it: cited from earlier work.
Experiment [2] deals with hippocampal CA3 pyramidal neurons. Put plainly: Acute i.v. prucalopride on firing of hippocampal CA3 pyramidal neurons, with microiontophoresis. The class given is in vivo, rat. Particulars: GR 125487 1000 μg/kg i.v. The protocol:
FIGS. 9A to 9D. FIGS. 9A and 9C show a typical example (integrated firing rate histogram) of the response of a single hippocampal pyramidal neuron of the CA3 sub-field to an acute, intravenous administration of the selective 5-HT4 agonist prucalopride (1000 μg/kg), and its reversal by local, microiontophoretic application of the selective 5-HT1A antagonist WAY 100635 (A), or systemic injection of the selective 5-HT4 antagonist GR 125487 (1000 μg/kg, i.v.) (C). Single-cell extracellular recordings were performed in the CA3 region of chloral-hydrate anaesthetized rats by using multiple-barrel glass microelectrodes, combined with microiontophoretic pumps (with the central barrel used for recordings). Pyramidal neurons were identified according to the classical criteria (see Example 5, experimental procedures). FIGS. 9B and 9D show a summary of the effects as for FIGS. 9A and 9C, respectively. Bar histograms represent the mean (S.E.M.) percentage effect, calculated for each neuron with respect to its basal firing rate (i.e. 100% value), and the number in each column represents the number of neurons tested. *p<0.05 vs basal value, one-way ANOVA.
Microiontophoresis and extracellular recordings from hippocampal CA3 pyramidal neurons. Recording and microiontophoresis were performed with five-barreled glass micropipettes broken back to 8-12 μm under microscope control. The central barrel was filled with the same solution as in the DRN and was used for extracellular unitary recordings. Pyramidal neurons were identified by their large amplitude (0.5-1.2 mV) and long-duration (0.8-1.2 ms) simple spikes alternating with complex spike discharges (Kandel and Spencer, 1961). The side barrels contained the following solutions: quisqualate (1.5 mM in 200 mM NaCl, pH 8), WAY 100635 (15 mM in 200 mM NaCl, pH 4), and 2 M NaCl used for automatic current balancing. Rats were mounted in the stereotaxic apparatus and the micropipettes were lowered at 4.2 mm lateral and 4.2 anterior to lambda into the CA3 sub-region of the dorsal hippocampus.
Involvement of endogenous 5-HT and hippocampal 5-HT1A receptors in the effect of 5-HT4 agonists. […] This interpretation is consistent with our own previous findings, showing that both acute and chronic (3-day) administration of the same compounds augment DRN 5-HT neuronal firing activity (Lucas and Debonnel, 2002; Lucas et al., 2005). It is also in keeping with observations from a single in vivo microdialysis study, where acute systemic injection of preferential 5-HT4 agonists increased hippocampal 5-HT efflux (Ge and Barnes, 1996). To further address this possibility, two additional series of experiments were conducted. First, the role of endogenous 5-HT was assessed by using the same protocol as above, in rats co-treated with RS 67333 (or its vehicle) and the 5-HT depleter para-chlorophenylalanine (pCPA). […] The ejection currents of quisqualate needed to activate CA3 pyramidal neurons were, in this case, similar to those used in controls (0 to −2 nA, FIG. 8C). We then tested the ability of a local application of WAY 100635, directly into the CA3 subfield through the use of microiontophoresis, to modify the effect of a 5-HT4 agonist. We chose not to use the previous protocol (i.e. chronic treatments), because, as shown above, the required quisqualate currents differ between the experimental groups. Even though all currents were balanced, it was not possible to exclude the possibility that the amount of quisqualate present in the vicinity of the electrode may have an influence on the quantity of WAY 100635 actually ejected, and/or on its ability to act on pyramidal neurons. For this reason, prucalopride was used acutely in naïve rats, at a dose known to induce a significant augmentation of DRN 5-HT neuronal activity (1000 μg/kg, i.v.) (Lucas and Debonnel, 2002). […]

In experiment [3] the test system is DRN 5-HT neurons. Put plainly: Extracellular single-unit recordings of DRN 5-HT neuron mean firing rate in anaesthetized rats. Format: in vivo, rat.
Experimental: In a second part of the study, the selective 5-HT4 agonists prucalopride (Briejer et al., 2001) and RS 67333 (Eglen et al., 1995) were administered either subacutely (i.e. 30 min before the beginning of recordings), or continuously through the use of osmotic minipumps during 3 or 21 days. The selective 5-HT4 antagonist GR 125487 (Gale et al., 1994) was also used to confirm the involvement of 5-HT4 receptors in the effects of the agonists. Successive single-cell extracellular recording tracks were then performed along the DRN of anaesthetized rats. This set of experiments was performed in order to globally assess the effect of such treatments on the mean activity of 5-HT neurons.
Pharmacological treatments. All the 3 different 5-HT4 pharmacological agents were diluted in a solution of physiological saline (NaCl 0.9%), and administered in a dose range known to induce significant binding on 5-HT4 sites (Lucas and Debonnel, 2002; Lamirault and Simon, 2001; Porras et al., 2002). In subacute experiments, prucalopride, RS 67333 or their vehicle were administered i.p. 30 min. before the beginning of recordings. For chronic treatments (both 3 and 21 days), prucalopride, RS 67333 or their vehicle were delivered through osmotic minipumps (Alza, Palo Alto, Calif.) inserted subcutaneously. Electrophysiological recordings were performed with the minipumps in place. […] In a separate set of experiments, the 5-HT4 antagonist GR 125487 was tested in animals treated for 3 days with either prucalopride or RS 67333. Two DRN tracks were first performed, then GR 125487 was administered i.v. (via a lateral vein of the tail) and 2-3 additional tracks were performed, starting 30 min. after the injection. All drug dosages refer to the free base.
Extracellular recordings of DRN 5-HT neurons. Recordings were performed using single-barreled glass micropipettes. Electrodes were filled with a 2 M NaCl solution saturated with Fast Green FCF, resulting in an impedance of 2-5 MΩ. Rats were anaesthetized with chloral hydrate (400 mg/kg, i.p.) and placed in a stereotaxic frame. A burr hole was drilled on the midline 1 mm anterior to lambda. DRN 5-HT neurons were encountered over a distance of 1 mm starting immediately below the ventral border of the Sylvius aqueduct. These neurons were identified using the classical criteria: a slow (0.5-2.5 Hz) and regular firing rate and long-duration (0.8-1.2 ms) positive action potentials (Aghajanian, 1978). In each animal, four to five successive descents were performed along the DRN, and a total of 10-16 cells was recorded. At the end of the experiments, a 25 μA cathodal current was passed through the recording electrode to leave a Fast Green deposit at the recording site. Animals were sacrificed with an i.v. overdose of chloral hydrate, and the brain removed. The site of recording was verified under microscope immediately after experiments.
Statistical analysis. In each experimental group, data were expressed as means±S.E.M. of all the recorded neurons, unless otherwise specified. The effects of the different 5-HT4 agonist administrations on the firing activity of DRN 5-HT neurons was assessed using one-way ANOVAs, followed by the post-hoc Dunnett's test when significant. The influence of GR 125487 on the effect of a 3-day treatment with prucalopride or RS 67333 was assessed using two-way ANOVAs followed by the post-hoc Tukey's test. In all cases, p<0.05 was chosen as the criterion of significance.
The subject of experiment [4] is BrdU-positive cells in the sub-granular zone (SGZ) of the hippocampus. The note with it: cited from earlier work.
The subject of experiment [5] is DRN 5-HT neurons. Put plainly: Reversal by acute prucalopride of the inhibition of DRN 5-HT neuron firing rate induced by i.v. SSRIs. Format: in vivo, rat. The note with it: acute intravenous administration. From the text: FIGS. 6A and 6B illustrate the effect of prucalopride on the inhibition of 5-HT neuronal firing rate induced by SSRIs fluxoamine and citalopram.
In FIGS. 6A and 6B, the firing activity of the 5-HT neuron is suppressed following the acute intravenous administration of the antidepressant SSRIs fluvoxamine and citalopram. This suppression of the firing activity is due to the activation of the 5-HT1A autoreceptors, subsequent to the increase of the concentration of endogenous 5-HT, following the blockade of the 5-HT reuptake sites.

Consider `CN1CCN2c3ncccc3Cc3ccccc3C2C1` (stereo not drawn) [mirtazapine], for which the “effect on 5-HT neuron firing rate” value is “increases” in the experiment on DRN 5-HT neurons [1] (acute conditions, Haddjeri et al., 1996) and “no longer present” in the experiment on DRN 5-HT neurons [1] (after a 2-day treatment, Besson et al., 2000).

Regarding `COc1[nH]c2ccc(F)cc2c1C(=O)OCC1CCN(CCNS(C)(=O)=O)CC1` [GR 125487], the “effect of GR 125487 on the action of prucalopride” value in experiment [2] was “abolished”. For the same molecule, in the experiment on DRN 5-HT neurons [3] (GR 125487 acute i.v., tracks from 30 min after injection), the “effect of GR 125487 on the facilitory effect of 3-day prucalopride or RS 67333 on DRN 5-HT firing rate” value is reported as “totally suppressed”. Besides, the “effect of GR 125487 on its own on 5-HT neuronal activity” value in the experiment on DRN 5-HT neurons [3] (acute i.v., control rats) was “small, non statistically significant”.

With `CNCCC(Oc1ccc(C(F)(F)F)cc1)c1ccccc1` (stereo not drawn) [fluoxetine], in experiment [4] (14-day treatment, Malberg et al., 2000), the “increase of hippocampal neurogenesis” value is listed as “+35%”. The “quickest effect reported on hippocampal neurogenesis” value in experiment [4] (Santarelli et al., 2003) was 11 days. The “activity on hippocampal neurogenesis” value in experiment [4] (at 5 days, Santarelli et al., 2003) was “inactive”.

Regarding `COCCCC/C(=N\OCCN)c1ccc(C(F)(F)F)cc1` [fluvoxamine], the “firing activity of the 5-HT neuron after SSRI” value in the experiment with DRN 5-HT neurons [5] is “suppressed”.
